Assay: xn = mol fraction of the nth substance listed
Conditions: 101.33 kPa, Liquid

CCc1ccccc1 [ethylbenzene] + CN1CCCC1=O
Conditions	mass density, 333.15 K [kg/m3]	mass density, 343.15 K [kg/m3]	mass density, 353.15 K [kg/m3]	viscosity, 333.15 K [mPa·s]	viscosity, 343.15 K [mPa·s]	viscosity, 353.15 K [mPa·s]
x1 = 0.094	979.51	970.56	961.56	0.932	0.833	0.746
x1 = 0.1901	962.67	953.71	944.7	0.868	0.774	0.695
x1 = 0.2859	945.85	936.87	927.86	0.801	0.714	0.643
x1 = 0.3839	929.24	920.25	911.2	0.735	0.658	0.596
x1 = 0.4839	912.7	903.71	894.64	0.671	0.603	0.547
x1 = 0.5835	896.46	887.45	878.35	0.618	0.559	0.505
x1 = 0.6854	880.17	871.13	862.01	0.565	0.514	0.468
x1 = 0.7888	864	854.97	845.86	0.52	0.472	0.43
x1 = 0.8937	847.93	838.91	829.76	0.474	0.43	0.391
x1 = 1	833.34	824.26	815.18	0.437	0.397	0.366

From the NIST ThermoML archive (doi:10.1021/je049572f)
